Data as given in patent US20250221943A1, “POLYDOPAMINE CO-POLYMER NANOPARTICLES” (CAMBRIDGE ENTERPRISE LIMITED, priority 2022, published 2025).
Each block holds one compound with its values, some of them ahead of it.

Assays:
[1] = Loading content by UV-Vis; assay type: physicochemical; conditions: for loading content of the drug in F127@PDA NPs: physical adsorption, conventional method
Method: F127@PDA NPs (5 mg) was dissolved in 10 mM Tris buffer (5 mL) and Fluorescein-TEG-NH2 (10 mg, 2 wt eq.) dissolved in 0.5 mL ethanol was added dropwise. The mixture was protected from direct sunlight and stirred over night at room temperature. Excess Fluorescein-TEG-NH2 was removed washing with Milli-Q water using Vivaspin 20 (Satorius, UK) centrifugal concentrators (10 kDa MWCO) for 15 min at 4000 rpm until the supernatant was colourless, followed by 3 days dialysis against water with 12-14 kDa MWCO dialysis bags.
To assess the loading capacity, absorption of SN38 was investigated adapting a method by Wang et al.^[90] A suspension of 10 mg F127@PDA NPs (1 mg/mL) and 2.5 mg SN38 (0.25 wt eq.) in DMSO:H2O=1:10 (10 mL) were sonicated for 30 min, followed by stirring at room temperature for 72 hours. To remove free drug, the reaction mixture was first centrifuged at 2000 rpm for 5 min. The supernatant was collected and washed with Milli-Q water using Vivaspin 20 (Satorius, UK) centrifugal concentrators (10 kDa MWCO) for 15 min at 4000 rpm. The obtained particles were diluted in Milli-Q water, frozen in liquid nitrogen and lyophilised to yield a dark brown powder. The loading content of SN38 within the NPs was determined using UV-Vis. The absorbance of SN38@F127@PDA NPs at 382 nm was deducted by the F127@PDA absorbance and the loading content was calculated according to the following equation: (3).^[98]
F127@PDA NPs (5 mg) was dissolved in 10 mM Tris buffer (5 mL) and the corresponding ligand 4-6 (10 mg, 2 wt eq.) dissolved in 0.5 mL ethanol was added dropwise. The mixture was protected from direct sunlight and stirred over night at room temperature. […]
A suspension of 10 mg F127@PDA NPs (1 mg/mL) and 2.5 mg of the corresponding drug (0.25 wt eq.) in DMSO:H2O=1:10 (10 mL) were sonicated for 30 min, followed by stirring at room temperature for 72 hours. […] The loading content of Gem and PTX within the NPs was determined using UV-Vis. The absorbance of the free drug in the supernatant was measured and the loading content was calculated according to the following equation: […]

BxPC-3 [2] = test: Live-cell imaging (IncuCyte) cytotoxicity of SN38 and SN38@F127@PDA; assay type: cell-based, human; conditions: BxPc-3, live-cell imaging, 72 h treatment
Method: (§1) All NPs were tested for cytotoxicity studies in AsPC-1, BxPC-3, MIA-PaCa-2, PANC-1 and ARPE-19. Cells were seeded into 96-well plates at concentration of 2000 cells/well, in 200 μl of complete growth medium and incubated at 37 C, 5% CO2 for 24 h. After overnight incubation, the cells were treated with different concentration of F127@PDA-40, F127@PDA-60 and F127@PDA-100 (0.01-100 μg/mL) dissolved in complete cell media, the same volume of water was added for the negative control. The plates were then inserted into the IncuCyte®S3 Live-Cell Analysis System (Sartorius) for real-time imaging. Treated plates were imaged every 3 h for 72 h under cell culture conditions with 10× objective using the brightfield channel. Mean cell confluence was calculated using the images taken from 3 random fields of view per well using the IncuCyte S3 v2017A software. All Incucyte experiments were performed in triplicate in three independent experiments. Relative confluence values were obtained by normalizing each value to the time zero value in each sample and normalised to the untreated control sample.
(§2) Cells were seeded into 96-well plates at concentration of 2000 cells/well, in 100 μl of complete growth medium and incubated at 37 C, 5% CO2 for 24 h. After overnight incubation, the cells were treated with SN38 and the same concentration of SN38@F127@PDA using various concentrations (0.0001 μM-1 μM). The plates were inserted into the IncuCyte®S3 Live-Cell Analysis System (Sartorius) for real-time imaging. Treated plates were imaged every 3 h for 72 h under cell culture conditions with 10× objective using the brightfield channel. Average cell confluence was calculated as described in the previous section. In addition to live cell imaging after 72 h incubation in the IncuCyte®S3 MTS assay was performed as described in the section above.

MIA PaCa-2 [3] = test: as above; assay type: cell-based, human; conditions: MIA PaCa-2, live-cell imaging, 72 h treatment
Method: as §1, §2

PANC-1 [4] = test: as above; assay type: cell-based, human; conditions: PANC-1, live-cell imaging, 72 h treatment
Method: as §1, §2

AsPC-1 [5] = test: as above; assay type: cell-based, human; conditions: AsPC-1, live-cell imaging, 72 h treatment
Method: as §1, §2

BxPC-3 [6] = test: MTS assay cytotoxicity of SN38 and SN38@F127@PDA; assay type: cell-based, human; conditions: BxPc-3, MTS, 72 h treatment
Method: (§3) Additionally, the effect of F127@PDA NPs on the viability of AsPC-1, BxPC-3, MIA PaCa-2, PANC-1 and ARPE-19 using MTS assay (Promega, USA.) Cells were seeded into clear 96-well plates containing 2000 cells/well in 100 μL complete growth medium and cultured for 24 h at 37° C. and 5% CO2. Subsequently, cells were treated with varying concentrations of F127@PDA_40, F127@PDA_60 and F127@PDA_100 (0.01-100 μg/mL) dissolved in complete growth media containing 0.1% water. After further 72 h incubation at 37° C. and 5% CO2, 20 μL of CelTiter 96® AQueous One Solution (Promega, USA) was added into each well and incubated at 37° C., 5% CO2 for 1-4 h, according to the manufacturer's instruction. The absorbance of each well was measured at 490 nm using a Spark plate reader (TECAN, CH). Control measurements included negative control of cells with DMEM, cells with DMEM containing 0.1% water, cell-free culture media (blank) and cell-free sample dilutions in culture media to evaluate potential sample interferences with MTS reagent. All experiments were conducted in biological triplicates. The percentage cell viability was calculated according to the following:
as §2

MIA PaCa-2 [7] = test: MTS assay cytotoxicity of SN38 and SN38@F127@PDA; assay type: cell-based, human; conditions: MIA PaCa-2, MTS, 72 h treatment
Method: as §3, §2

PANC-1 [8] = test: MTS assay cytotoxicity of SN38 and SN38@F127@PDA; assay type: cell-based, human; conditions: PANC-1, MTS, 72 h treatment
Method: as §3, §2

AsPC-1 [9] = test: MTS assay cytotoxicity of SN38 and SN38@F127@PDA; assay type: cell-based, human; conditions: AsPC-1, MTS, 72 h treatment
Method: as §3, §2

loading content of the drug in F127@PDA NPs [1]: 11.5±5.7 % (w/w)
Compound: Nc1ccn([C@@H]2O[C@H](CO)[C@@H](O)C2(F)F)c(=O)n1 [Gem, Gemcitabine]

loading content of the drug in F127@PDA NPs [1]: 14.3±4.7 % (w/w)
Compound: CC(=O)O[C@H]1C(=O)[C@@]2(C)[C@H]([C@H](OC(=O)c3ccccc3)[C@]3(O)C[C@H](OC(=O)[C@H](O)[C@@H](NC(=O)c4ccccc4)c4ccccc4)C(C)=C1C3(C)C)[C@]1(OC(C)=O)CO[C@@H]1C[C@@H]2O [PTX, Paclitaxel]

Compound: CCc1c2c(nc3ccc(O)cc13)-c1cc3c(c(=O)n1C2)COC(=O)[C@]3(O)CC [SN38]
IC50 (BxPC-3 [2]): 8.91 nM
IC50 (MIA PaCa-2 [3]): 12.1 nM
IC50 (PANC-1 [4]): 56.1 nM
IC50 (AsPC-1 [5]): 52.9 nM
IC50 (BxPC-3 [6]): 56 nM
IC50 (MIA PaCa-2 [7]): 13.1 nM
IC50 (PANC-1 [8]): 113 nM
IC50 (AsPC-1 [9]): 110 nM

Compound: TAMRA-CONH—PKKKRKVC—COOH ({TAMRA}-PKKKRKVC-OH) [TAMRA-NLS]
loading content (w/w) of the ligand on functionalized F127@PDA NPs ([1]; Michael addition post-functionalization): 3%
